Experimental data published in ChEMBL document CHEMBL1201862, “PubChem BioAssay data set” (2004).
Active and inactive are the calls of the source.

How the values were obtained:
[1] = biological target: T1, Rac GTPase-activating protein 1 (Homo sapiens, UniProt Q9H0H5); test: blockers of MgcRacGAP-driven Rac1 GTP hydrolysis – biochemical, ADP Hunter fluorescence, primary and confirmatory, confirmation (AID 624330); assay type: functional
T1 sequence (Q9H0H5 whole entry): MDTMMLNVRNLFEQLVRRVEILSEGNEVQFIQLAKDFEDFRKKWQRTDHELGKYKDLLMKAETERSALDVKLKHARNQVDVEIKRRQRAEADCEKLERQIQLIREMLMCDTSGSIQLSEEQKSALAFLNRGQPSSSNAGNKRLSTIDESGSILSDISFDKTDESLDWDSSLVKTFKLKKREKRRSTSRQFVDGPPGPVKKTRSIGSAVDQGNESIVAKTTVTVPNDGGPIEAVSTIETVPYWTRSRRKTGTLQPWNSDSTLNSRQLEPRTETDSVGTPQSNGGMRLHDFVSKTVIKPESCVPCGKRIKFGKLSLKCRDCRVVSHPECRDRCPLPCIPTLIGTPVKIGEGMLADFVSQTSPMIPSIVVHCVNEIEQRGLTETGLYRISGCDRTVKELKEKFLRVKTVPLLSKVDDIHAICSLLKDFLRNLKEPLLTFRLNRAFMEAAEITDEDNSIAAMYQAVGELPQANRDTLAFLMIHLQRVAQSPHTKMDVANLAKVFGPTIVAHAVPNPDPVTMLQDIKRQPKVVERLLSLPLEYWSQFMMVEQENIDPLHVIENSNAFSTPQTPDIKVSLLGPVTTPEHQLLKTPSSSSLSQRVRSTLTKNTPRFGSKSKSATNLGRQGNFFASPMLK

Large T antigen = Large T antigen (Simian virus 40, UniProt P03070); assay type: functional, Betapolyomavirus macacae;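 note: Confirmatory-stage PubChem screen for compounds that inhibit SV40 T antigen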
[2] = Luminescence Cell-Based Dose Response HTS to Identify Activators of Luciferase Translation or Activity in H4 […] Cells. [Related pubchem assays: 1829 (Project Summary), 1814 (Primary HTS)]; assay type: functional
H4 = test: Luminescence Cell-Based Dose Response HTS to Identify Activators of 5'UTR Stem-Loop Driven Prion Protein mRNA Translation in H4 Neuroglioblastoma Cells. [Related pubchem assays: 1829 (Project Summary), 1814 (Primary HTS)]; assay type: functional; details: Homo sapiens
[3] = biological target: T2, Corticotropin-releasing factor receptor 2/Corticotropin-releasing factor-binding protein (Homo sapiens, UniProt P24387+Q13324); test: activators of CRF receptor 2 with binding protein – uHTS hits, confirmation (AID 602473); assay type: functional; details: read-out: EC50_Mean
T2 sequence (Q13324 whole entry): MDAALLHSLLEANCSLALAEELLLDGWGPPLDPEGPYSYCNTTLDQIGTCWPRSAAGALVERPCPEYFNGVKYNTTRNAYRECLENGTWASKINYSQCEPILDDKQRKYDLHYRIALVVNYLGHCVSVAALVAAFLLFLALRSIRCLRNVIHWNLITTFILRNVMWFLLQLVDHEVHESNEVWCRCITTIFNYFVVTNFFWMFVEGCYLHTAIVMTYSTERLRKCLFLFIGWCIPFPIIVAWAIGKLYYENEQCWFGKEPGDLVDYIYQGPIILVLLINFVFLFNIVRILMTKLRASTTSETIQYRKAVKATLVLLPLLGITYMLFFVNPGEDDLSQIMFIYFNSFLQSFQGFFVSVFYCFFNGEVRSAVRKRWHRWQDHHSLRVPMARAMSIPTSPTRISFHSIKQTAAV
T2 sequence (P24387 whole entry): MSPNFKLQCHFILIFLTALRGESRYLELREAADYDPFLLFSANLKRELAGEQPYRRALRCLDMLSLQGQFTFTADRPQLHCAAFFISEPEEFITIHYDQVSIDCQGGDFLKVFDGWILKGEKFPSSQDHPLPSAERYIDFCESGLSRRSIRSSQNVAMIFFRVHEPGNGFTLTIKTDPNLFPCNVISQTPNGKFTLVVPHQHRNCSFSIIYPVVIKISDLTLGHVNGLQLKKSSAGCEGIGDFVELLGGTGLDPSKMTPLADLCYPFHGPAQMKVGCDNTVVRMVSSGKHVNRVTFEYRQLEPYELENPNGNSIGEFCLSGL

[4] = biological target: FAD-linked sulfhydryl oxidase ALR (Homo sapiens, UniProt P55789); test: ALR-catalysed DTT oxidation blockers – biochemical, H2O2 detection, luminescence, cherry-pick, dose response (AID 493248)
cells [5] = assay type: functional, cell-based
cells [6] = assay type: functional, cell-based; remark: listed apart in the source
Genome polyprotein = Genome polyprotein (dengue virus type 2, UniProt P29990); test: flavivirus cap methylation enzyme inhibition – biochemical, confirmation dose response, primary screen (AID 588689); assay type: functional
Nonstructural protein 1 = Nonstructural protein 1 (Influenza A virus, UniProt Q194T2); assay type: functional, Influenza A virus (A/California/07/2009(H1N1))
Paired box protein Pax-8 = Paired box protein Pax-8 (Homo sapiens, UniProt Q06710); test: PAX8 transcriptional activity inhibition in RMG-I – RMG-I cells, luciferase, cherry-pick, dose response (AID 687027); assay type: functional, cell-based;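 note: luciferase reporter driven by Pax8 target thyroperoxidase promoter measured by SteadyGlo luminescence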
INS1 = test: INS-1E survival protection against cytokine death – cell-based, luminescence, retest, dose response (AID 449756); assay type: functional; details: Rattus norvegicus;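 note: cell death triggered by IL-1 beta plus TNF-alpha plus IFN-gamma mixture; protective hits raise ATP signal compared with cytokine alone wells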
[7] = viability of uninfected HEp-2 cells – cell-based, HTS, cytotoxicity control for RSV inhibitor project, dose response (AID 2410); assay type: functional; details: human respiratory syncytial virus
[8] = viability of HCT116 lacking mutant beta-catenin – cell-based, human colon tumor, dose response (AID 1045); assay type: functional;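 note: HCT116 colon tumor cells with beta catenin knocked out; cells exposed to compound for 60 hours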
[9] = viability of PTEN-deleted HCT116 cells – cell-based, HCT116 PTEN knockout, dose response (AID 1047); assay type: functional;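 note: HCT116 colon tumor cells with PTEN knocked out; cells exposed to compound for 60 hours before readout; potency for loss of cell viability measured by luminescence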
Streptokinase A = biological target: T3, Streptokinase A (Streptococcus pyogenes serotype M1, UniProt P10520); test: viability-normalized secreted streptokinase activity reduction – plasminogen activation absorbance, OD405, dose response (AID 1914); assay type: functional, Streptococcus pyogenes M1 GAS;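 note: secreted streptokinase activity via plasminogen activation per viability signal from cell pellet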
T3 sequence (P10520 whole entry): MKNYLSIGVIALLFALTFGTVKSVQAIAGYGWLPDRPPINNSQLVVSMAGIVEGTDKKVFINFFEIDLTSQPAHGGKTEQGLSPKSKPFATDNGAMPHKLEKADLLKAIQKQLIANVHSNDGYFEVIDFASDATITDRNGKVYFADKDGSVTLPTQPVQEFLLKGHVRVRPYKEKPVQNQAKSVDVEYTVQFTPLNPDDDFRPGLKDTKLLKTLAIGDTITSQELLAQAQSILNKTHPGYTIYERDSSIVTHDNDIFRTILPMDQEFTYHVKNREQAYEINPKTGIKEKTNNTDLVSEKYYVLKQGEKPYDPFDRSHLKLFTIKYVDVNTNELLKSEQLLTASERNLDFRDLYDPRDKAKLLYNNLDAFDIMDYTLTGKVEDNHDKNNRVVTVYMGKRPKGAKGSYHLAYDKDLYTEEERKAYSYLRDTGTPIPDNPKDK

Streptococcus = test: GAS UMAA2166 growth inhibition – luminescence, BacTiterGlo, counter-screen for streptokinase expression inhibitor project, dose response (AID 1915); assay type: functional, organism-based;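 note: potency for reduction of bacterial viability or growth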
[10] = test system: Streptococcus sp. 'group A'; test: Streptococcus pyogenes SK(-)GAS viability under kanamycin – luminescence, BacTiterGlo, confirmation, counter-screen for streptokinase expression inhibitor project, dose response (AID 1900); assay type: functional, organism-based

Sequence of Large T antigen (P03070 whole entry): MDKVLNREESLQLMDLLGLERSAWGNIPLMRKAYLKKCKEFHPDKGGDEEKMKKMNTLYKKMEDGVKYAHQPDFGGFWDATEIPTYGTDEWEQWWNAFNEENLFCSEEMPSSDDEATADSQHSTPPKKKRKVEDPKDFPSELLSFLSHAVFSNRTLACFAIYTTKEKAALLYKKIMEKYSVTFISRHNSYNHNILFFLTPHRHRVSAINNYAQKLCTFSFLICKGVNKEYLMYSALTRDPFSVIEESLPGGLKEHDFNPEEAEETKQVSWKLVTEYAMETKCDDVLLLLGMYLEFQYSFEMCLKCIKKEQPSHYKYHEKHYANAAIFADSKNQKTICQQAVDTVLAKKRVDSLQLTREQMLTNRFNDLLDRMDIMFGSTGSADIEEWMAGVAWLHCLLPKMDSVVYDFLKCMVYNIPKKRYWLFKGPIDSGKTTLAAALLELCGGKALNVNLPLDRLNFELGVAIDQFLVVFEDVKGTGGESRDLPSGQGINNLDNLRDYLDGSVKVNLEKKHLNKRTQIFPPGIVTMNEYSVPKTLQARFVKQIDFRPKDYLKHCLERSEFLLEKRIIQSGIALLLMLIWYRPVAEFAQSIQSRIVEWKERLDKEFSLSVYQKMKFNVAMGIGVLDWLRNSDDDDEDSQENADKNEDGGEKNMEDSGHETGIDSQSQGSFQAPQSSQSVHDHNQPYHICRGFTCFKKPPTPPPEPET
Sequence of FAD-linked sulfhydryl oxidase ALR (P55789 whole entry): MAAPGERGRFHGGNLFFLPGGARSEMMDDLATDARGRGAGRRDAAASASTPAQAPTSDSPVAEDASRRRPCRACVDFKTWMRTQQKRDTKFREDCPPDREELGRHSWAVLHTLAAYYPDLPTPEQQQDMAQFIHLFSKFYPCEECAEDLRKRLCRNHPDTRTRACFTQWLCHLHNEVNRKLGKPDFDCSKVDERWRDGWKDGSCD
Sequence of Genome polyprotein (P29990 2492-3391 limits assumed): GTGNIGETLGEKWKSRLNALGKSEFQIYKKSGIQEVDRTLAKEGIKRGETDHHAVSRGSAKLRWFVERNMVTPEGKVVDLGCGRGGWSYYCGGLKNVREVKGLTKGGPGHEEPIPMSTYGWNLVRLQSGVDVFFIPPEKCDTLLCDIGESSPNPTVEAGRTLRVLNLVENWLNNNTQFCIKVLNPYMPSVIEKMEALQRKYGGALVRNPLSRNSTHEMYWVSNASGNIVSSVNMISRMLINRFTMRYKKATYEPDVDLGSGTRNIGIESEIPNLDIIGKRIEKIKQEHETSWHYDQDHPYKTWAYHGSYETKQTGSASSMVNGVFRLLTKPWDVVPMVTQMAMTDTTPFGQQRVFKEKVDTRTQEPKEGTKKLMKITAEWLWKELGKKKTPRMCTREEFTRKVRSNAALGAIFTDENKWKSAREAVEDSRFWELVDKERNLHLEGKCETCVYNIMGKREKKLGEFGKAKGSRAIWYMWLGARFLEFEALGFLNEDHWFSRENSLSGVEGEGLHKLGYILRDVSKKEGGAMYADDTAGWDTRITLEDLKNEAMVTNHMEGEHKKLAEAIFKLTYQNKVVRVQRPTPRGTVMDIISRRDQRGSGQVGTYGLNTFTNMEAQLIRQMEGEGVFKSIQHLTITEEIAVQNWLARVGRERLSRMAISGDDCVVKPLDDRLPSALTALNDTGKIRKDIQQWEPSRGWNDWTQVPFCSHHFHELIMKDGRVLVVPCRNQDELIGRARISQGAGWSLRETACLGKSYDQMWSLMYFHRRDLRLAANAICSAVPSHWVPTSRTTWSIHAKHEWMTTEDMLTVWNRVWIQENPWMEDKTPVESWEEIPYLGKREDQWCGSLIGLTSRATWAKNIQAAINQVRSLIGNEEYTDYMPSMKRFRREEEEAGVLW
Sequence of Nonstructural protein 1 (Q194T2 whole entry): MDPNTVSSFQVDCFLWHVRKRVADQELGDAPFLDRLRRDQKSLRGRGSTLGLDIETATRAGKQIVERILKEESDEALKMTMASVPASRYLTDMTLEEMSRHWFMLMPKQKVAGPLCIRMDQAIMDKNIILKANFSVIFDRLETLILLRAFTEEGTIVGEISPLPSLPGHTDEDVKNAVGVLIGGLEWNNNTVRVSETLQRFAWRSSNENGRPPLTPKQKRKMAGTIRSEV
Sequence of Paired box protein Pax-8 (Q06710 whole entry): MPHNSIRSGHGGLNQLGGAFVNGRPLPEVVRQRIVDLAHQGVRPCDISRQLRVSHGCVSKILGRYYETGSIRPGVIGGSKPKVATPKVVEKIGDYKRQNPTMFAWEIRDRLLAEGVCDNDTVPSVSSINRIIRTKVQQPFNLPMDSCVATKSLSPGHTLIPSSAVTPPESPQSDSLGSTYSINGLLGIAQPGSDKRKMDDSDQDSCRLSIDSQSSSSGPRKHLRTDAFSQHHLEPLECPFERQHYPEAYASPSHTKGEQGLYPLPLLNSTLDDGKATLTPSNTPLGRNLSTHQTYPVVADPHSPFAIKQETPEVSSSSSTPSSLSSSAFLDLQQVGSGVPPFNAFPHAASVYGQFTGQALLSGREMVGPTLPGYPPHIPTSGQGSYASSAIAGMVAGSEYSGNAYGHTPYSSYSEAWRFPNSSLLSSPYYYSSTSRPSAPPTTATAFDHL

## CCc1c(C)nc(N)nc1N1N=C1SC(C(C)=O)C(C)=O
[1]
  IC50: 12.5 µM (active)
Large T antigen
  IC50: 95.9 µM (active)

## O=C(Nc1ccc(Cl)c(Cl)c1)c1ccc(Cn2cc(Cl)cn2)cc1
[2]
  EC50: 38.1 µM (active)
H4
  EC50: > 120 µM (not active)

## Cc1cc(C=C(C#N)C#N)ccc1N1CCCC1
[3]
  EC50: 6.3 µM (active)

## COc1ccc(NC2CCCN(C(=O)c3c(C)noc3C)C2)cc1 (stereo not given)
[4]
  AC50: 3.46 µM (active)
Large T antigen
  IC50: 24 µM (active)

## COc1ccc2nc(NC3=NCCN3)sc2c1
[2]
  EC50: 0.778 µM (active)
H4
  EC50: 2.01 µM (active)

## O=C(NNC(=O)c1ccccc1Br)c1ccc(Cl)cc1
Cells [5]
  EC50: > 350 µM (not active)
Cells [6]
  EC50: > 350 µM (not active)

## COc1ccc(N=Nc2c(N)n[nH]c2N)cc1
[4]
  AC50: 17 µM (active)
Large T antigen
  IC50: 12 µM (active)

## CS(=O)(=O)c1ccc2nc(NC(=O)C3CC3)sc2c1
Cells [5]
  EC50: > 350 µM (not active)
Cells [6]
  EC50: > 350 µM (not active)

## O=C1NC(=O)C(=Cc2ccc(N3CCN(C(=O)c4ccccc4)CC3)c([N+](=O)[O-])c2)C(=O)N1
Genome polyprotein
  IC50: 19.8 µM (active)

## CC1=NN(c2ccccc2)C(=O)/C1=C\c1sccc1C
Nonstructural protein 1
  IC50: > 100 µM (active)

## CCCCCCc1cc2cc(C(=O)NC)c(=N)oc2cc1O
[3]
  EC50: 3.06 µM (active)

## COc1cc(C2c3cc4c(c(O)c3CC3COC(=O)C32)OCO4)cc(OC)c1OC (stereo not given)
Paired box protein Pax-8
  AC50: < 0.26 µM (active)

## CC(=O)Nc1ccccc1O
Large T antigen
  IC50: 6.2 µM (active)

## O=C1NC(=O)C(=Cc2coc3ccc(O)cc3c2=O)C(=O)N1
Genome polyprotein
  IC50: > 100 µM (active)
[1]
  IC50: 150 µM (active)

## CN1/C(=C\C(=S)NC(=O)c2ccccc2Cl)C(C)(C)c2ccccc21
INS1
  AC50: 8.03 µM (active)
Nonstructural protein 1
  IC50: 29.3 µM (active)

## O=C(Oc1ccc(-c2cnc3ccccc3n2)cc1)c1ccc(Cl)c([N+](=O)[O-])c1
[7]
  CC50: 25.1 µM (active)
[8]
  EC50: 34.6 µM (active)
[9]
  EC50: 48.9 µM (active)
Streptokinase A
  EC50: > 150 µM (not active)
Streptococcus
  EC50: 114 µM (active)
[10]
  EC50: 11.5 µM (active)
